Publication PMC3391414 (Journal of Agricultural and Food Chemistry, 2011)
“Also recorded” adds a separate entry of the source. Read-outs that look alike come from different tables or passages of the source. Each block holds one compound with its values, some of them ahead of it.

Columns and labels:
[1] = cited from earlier work
[2] = target: T1, UGT1A3 (Homo sapiens, UniProt P35503); conditions: pH 7.4
T1 sequence (P35503 29-534): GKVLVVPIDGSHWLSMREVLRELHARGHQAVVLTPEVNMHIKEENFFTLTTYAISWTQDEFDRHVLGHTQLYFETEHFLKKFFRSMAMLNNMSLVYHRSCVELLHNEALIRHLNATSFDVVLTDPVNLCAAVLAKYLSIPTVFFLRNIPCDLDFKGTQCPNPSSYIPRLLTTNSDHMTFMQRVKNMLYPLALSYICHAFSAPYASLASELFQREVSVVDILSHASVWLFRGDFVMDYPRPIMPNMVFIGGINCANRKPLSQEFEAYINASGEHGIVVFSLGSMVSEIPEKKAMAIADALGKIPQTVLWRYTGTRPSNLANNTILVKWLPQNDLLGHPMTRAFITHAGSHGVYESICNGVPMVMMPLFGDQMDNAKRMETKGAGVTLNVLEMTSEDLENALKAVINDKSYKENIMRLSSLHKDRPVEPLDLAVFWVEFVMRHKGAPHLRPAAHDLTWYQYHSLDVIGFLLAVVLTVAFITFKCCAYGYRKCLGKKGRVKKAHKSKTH

[3] = target: T2, UGT1A1 (Homo sapiens, UniProt P22309); conditions: pH 7.4
T2 sequence (P22309 26-533): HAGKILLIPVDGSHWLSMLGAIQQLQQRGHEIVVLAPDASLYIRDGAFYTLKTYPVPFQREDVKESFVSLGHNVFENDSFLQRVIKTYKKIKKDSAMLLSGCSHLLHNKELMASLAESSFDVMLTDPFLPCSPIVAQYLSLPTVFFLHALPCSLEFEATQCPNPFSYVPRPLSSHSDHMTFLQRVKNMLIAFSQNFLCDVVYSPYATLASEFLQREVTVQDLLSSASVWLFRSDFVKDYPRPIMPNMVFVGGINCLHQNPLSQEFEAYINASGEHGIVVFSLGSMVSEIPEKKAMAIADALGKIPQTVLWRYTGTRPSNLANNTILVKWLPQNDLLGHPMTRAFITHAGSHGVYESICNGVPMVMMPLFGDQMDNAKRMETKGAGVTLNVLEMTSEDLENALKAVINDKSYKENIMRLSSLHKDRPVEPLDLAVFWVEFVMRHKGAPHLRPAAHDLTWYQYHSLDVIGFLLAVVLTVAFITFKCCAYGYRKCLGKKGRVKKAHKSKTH

[4] = target: T3, UGT1A9 (Homo sapiens, UniProt O60656); conditions: pH 7.4
T3 sequence (O60656 26-530): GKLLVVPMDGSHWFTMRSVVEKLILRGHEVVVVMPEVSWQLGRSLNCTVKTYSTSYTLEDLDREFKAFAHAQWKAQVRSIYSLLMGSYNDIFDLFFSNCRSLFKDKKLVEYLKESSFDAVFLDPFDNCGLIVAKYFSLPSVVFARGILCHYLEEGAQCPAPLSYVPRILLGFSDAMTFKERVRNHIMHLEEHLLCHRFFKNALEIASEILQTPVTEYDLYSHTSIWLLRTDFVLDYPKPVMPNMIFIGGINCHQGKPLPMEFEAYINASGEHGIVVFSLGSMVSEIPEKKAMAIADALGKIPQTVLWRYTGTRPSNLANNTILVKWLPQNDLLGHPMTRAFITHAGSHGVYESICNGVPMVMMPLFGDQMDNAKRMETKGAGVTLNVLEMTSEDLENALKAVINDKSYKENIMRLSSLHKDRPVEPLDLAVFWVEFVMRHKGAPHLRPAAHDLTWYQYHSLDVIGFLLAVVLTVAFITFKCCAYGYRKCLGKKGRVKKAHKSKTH

[5] = test system: UGT 1A1, 1A3, 1A6, 1A7, 1A8, 1A9, 1A10 and 2B7; conditions: human, 10 μM, pH 7.4
[6] = target: T3, UGT1A9; test: Glucuronidation by recombinant human UGT1A9
[7] = target: T4, UGT2B7 (Homo sapiens, UniProt P16662); test: Glucuronidation by recombinant human UGT2B7; conditions: UGT2B7, substrate 10 μM
T4 sequence (P16662 24-529): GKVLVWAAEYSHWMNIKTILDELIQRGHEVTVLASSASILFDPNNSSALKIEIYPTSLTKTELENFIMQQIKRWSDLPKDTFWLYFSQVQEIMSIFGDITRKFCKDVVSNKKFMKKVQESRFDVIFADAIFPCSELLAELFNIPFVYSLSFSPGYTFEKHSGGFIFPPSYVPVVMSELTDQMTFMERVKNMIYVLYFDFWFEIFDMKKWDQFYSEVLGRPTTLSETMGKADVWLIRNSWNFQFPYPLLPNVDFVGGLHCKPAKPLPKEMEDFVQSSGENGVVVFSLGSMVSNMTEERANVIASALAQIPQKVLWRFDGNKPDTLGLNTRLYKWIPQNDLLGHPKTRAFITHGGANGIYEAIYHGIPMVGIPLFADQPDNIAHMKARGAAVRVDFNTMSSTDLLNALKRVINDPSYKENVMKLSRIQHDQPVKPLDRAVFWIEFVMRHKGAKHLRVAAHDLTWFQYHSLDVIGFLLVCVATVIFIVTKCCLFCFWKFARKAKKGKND

[8] = target: T1, UGT1A3; test: Glucuronidation by recombinant human UGT1A3
[9] = target: T5, UGT1A10 (Homo sapiens, UniProt Q9HAW8); test: Glucuronidation by recombinant human UGT1A10; conditions: UGT1A10, substrate 10 μM
T5 sequence (Q9HAW8 26-530): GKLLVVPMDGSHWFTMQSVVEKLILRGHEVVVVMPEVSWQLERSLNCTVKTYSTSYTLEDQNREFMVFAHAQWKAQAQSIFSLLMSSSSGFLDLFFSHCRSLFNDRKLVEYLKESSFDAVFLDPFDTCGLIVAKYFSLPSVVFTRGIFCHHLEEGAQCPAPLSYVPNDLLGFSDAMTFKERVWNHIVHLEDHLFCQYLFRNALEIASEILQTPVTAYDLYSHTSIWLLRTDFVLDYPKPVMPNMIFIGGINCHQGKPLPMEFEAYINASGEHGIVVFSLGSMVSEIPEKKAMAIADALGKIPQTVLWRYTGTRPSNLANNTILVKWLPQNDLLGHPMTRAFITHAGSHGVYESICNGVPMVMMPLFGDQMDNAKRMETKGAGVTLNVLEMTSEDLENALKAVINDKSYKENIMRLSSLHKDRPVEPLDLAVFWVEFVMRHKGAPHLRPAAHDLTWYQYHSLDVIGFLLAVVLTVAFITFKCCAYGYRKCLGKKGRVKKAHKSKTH

[10] = target: T6, UGT1A6 (Homo sapiens, UniProt P19224); test: Glucuronidation by recombinant human UGT1A6; conditions: UGT1A6, substrate 10 μM
T6 sequence (P19224 27-532): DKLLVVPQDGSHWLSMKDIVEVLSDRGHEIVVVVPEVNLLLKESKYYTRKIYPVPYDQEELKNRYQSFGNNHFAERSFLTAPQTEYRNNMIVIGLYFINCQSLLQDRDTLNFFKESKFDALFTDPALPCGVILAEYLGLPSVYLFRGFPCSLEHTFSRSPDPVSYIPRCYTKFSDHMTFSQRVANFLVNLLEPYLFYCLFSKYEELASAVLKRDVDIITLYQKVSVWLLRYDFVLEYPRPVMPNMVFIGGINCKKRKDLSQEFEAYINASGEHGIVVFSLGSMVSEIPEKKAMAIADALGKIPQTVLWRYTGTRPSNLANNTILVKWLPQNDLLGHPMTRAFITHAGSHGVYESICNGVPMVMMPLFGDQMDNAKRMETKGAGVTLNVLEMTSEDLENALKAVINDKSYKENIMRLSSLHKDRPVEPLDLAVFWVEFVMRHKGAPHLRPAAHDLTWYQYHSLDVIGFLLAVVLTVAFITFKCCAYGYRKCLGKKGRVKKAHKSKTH

[11] = target: T2, UGT1A1; test: Glucuronidation by recombinant human UGT1A1
[12] = target: T7, UGT1A8 (Homo sapiens, UniProt Q9HAW9); test: Glucuronidation by recombinant human UGT1A8; conditions: UGT1A8, substrate 35 μM
T7 sequence (Q9HAW9 26-530): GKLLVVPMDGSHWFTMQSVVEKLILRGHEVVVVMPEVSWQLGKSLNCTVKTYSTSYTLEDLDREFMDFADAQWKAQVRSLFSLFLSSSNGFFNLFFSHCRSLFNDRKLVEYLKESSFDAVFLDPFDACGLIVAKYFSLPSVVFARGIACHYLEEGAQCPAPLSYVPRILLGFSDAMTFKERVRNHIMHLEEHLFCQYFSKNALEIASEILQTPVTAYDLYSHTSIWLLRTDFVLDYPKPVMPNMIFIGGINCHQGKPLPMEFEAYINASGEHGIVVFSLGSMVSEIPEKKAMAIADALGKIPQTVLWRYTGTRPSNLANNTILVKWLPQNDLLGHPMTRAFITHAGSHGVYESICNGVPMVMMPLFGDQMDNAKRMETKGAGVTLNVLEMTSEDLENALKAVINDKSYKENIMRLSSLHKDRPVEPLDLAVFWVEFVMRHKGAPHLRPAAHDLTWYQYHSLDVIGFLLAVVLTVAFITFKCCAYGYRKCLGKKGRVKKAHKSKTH

[13] = cited from earlier work; remark: listed apart in the source

SMILES: O=c1c(-c2ccc(O)cc2)coc2cc(O)cc(O)c12 [genistein]
Cmax of 7-O-glucuronide relative to 4’-O-glucuronide ([1]; intravenous administration of genistein): four times higher
Cmax of 7-O-G relative to 4’-O-glucuronide ([1]; per-oral administration of genistein): 1.85 times

Degree of regiospecificity (major glucuronide in bracket) ([2]; 2.5 μM): Dominant (7-O)
Degree of regiospecificity (major glucuronide in bracket) ([2]; 10 μM): Dominant (7-O)
Degree of regiospecificity (major glucuronide in bracket) ([3]; 2.5 μM): Dominant (7-O)
Degree of regiospecificity (major glucuronide in bracket) ([3]; 10 μM): Dominant (7-O)
Degree of regiospecificity (major glucuronide in bracket) ([4]; 2.5 μM): Dominant (7-O)
Degree of regiospecificity (major glucuronide in bracket) ([4]; 10 μM): Dominant (7-O)
SMILES: O=c1cc(-c2ccc(O)cc2)oc2cc(O)cc(O)c12 [5,7,4'THF, 5,7,4’-trihydroxyflavone]
Glucuronidation and regiospecificity across the 8 UGT isoforms [5]: all isoforms showed dominant regiospecific glucuronidation of hydroxyl group at C-7 position only

Degree of regiospecificity (major glucuronide in bracket) ([6]; UGT1A9, substrate 2.5 μM): Moderate (3-O)
Degree of regiospecificity (major glucuronide in bracket) ([6]; UGT1A9, substrate 10 μM): Moderate (3-O)
Degree of regiospecificity (major glucuronide in bracket) ([6]; UGT1A9, substrate 10 μM, listed as 7,4’DHFnol): moderate
Degree of regiospecificity (major glucuronide in bracket) ([8]; UGT1A3, substrate 2.5 μM): Dominant (7-O)
Degree of regiospecificity (major glucuronide in bracket) ([8]; UGT1A3, substrate 10 μM): Weak (7-O)
Hydroxyl positions glucuronidated [10]: no position was glucuronidated
Degree of regiospecificity (major glucuronide in bracket) ([11]; UGT1A1, substrate 2.5 μM): No (3-O, 7-O)
Degree of regiospecificity (major glucuronide in bracket) ([11]; UGT1A1, substrate 10 μM): No (3-O, 7-O)
SMILES: O=c1c(O)c(-c2ccc(O)cc2)oc2cc(O)ccc12 [7,4'DHFnol, 3,7,4’-trihydroxyflavone]
Hydroxyl positions glucuronidated ([6]; UGT1A9, substrate 10 μM): glucuronidated hydroxyl groups at C-3 and C-7 positions only
Hydroxyl positions glucuronidated [7]: glucuronidated all the three hydroxyl groups
Hydroxyl positions glucuronidated ([8]; UGT1A3, substrate 10 μM): glucuronidated hydroxyl groups at C-3 and C-7 positions only
Degree of regiospecificity (major glucuronide in bracket) ([8]; UGT1A3, substrate 10 μM, listed as 7,4’DHFnol): weak regiospecific preference for 7-O over 3-O position
Hydroxyl positions glucuronidated [9]: glucuronidated all the three hydroxyl groups
Hydroxyl positions glucuronidated ([11]; UGT1A1, substrate 10 μM): glucuronidated all the three hydroxyl groups
Degree of regiospecificity (major glucuronide in bracket) ([11]; UGT1A1, substrate 10 μM, listed as 7,4’DHFnol): no regiospecific preference for any position

Degree of regiospecificity (3-O vs 7-O) ([6]; UGT1A9, substrate 35 μM): no regiospecificity
Degree of regiospecificity (major glucuronide in bracket) ([8]; UGT1A3, substrate 2.5 μM): Moderate (7-O)
Hydroxyl positions glucuronidated [10]: no position was glucuronidated
Degree of regiospecificity (3-O vs 7-O) ([11]; UGT1A1, substrate 35 μM): no regiospecificity
SMILES: O=c1c(O)c(-c2ccccc2)oc2cc(O)ccc12 [7HFnol, 3,7-dihydroxyflavone]
Degree of regiospecificity (major glucuronide in bracket) ([6]; UGT1A9, substrate 2.5 μM): moderate regiospecificity for 3-O position
Degree of regiospecificity (major glucuronide in bracket) ([6]; UGT1A9, substrate 10 μM): moderate regiospecificity for 3-O position
Degree of regiospecificity (major glucuronide in bracket) ([8]; UGT1A3, substrate 10 μM): dominantly regiospecific by glucuronidating hydroxyl group only at C-7 position; also recorded: Dominant (7-O)
Degree of regiospecificity (3-O vs 7-O) [12]: moderate regiospecificity for 3-O position
Degree of regiospecificity (major glucuronide in bracket) ([11]; UGT1A1, substrate 2.5 μM): weak regiospecificity for 7-O position; also recorded: weakly preferred the glucuronidation of 7-O position
Degree of regiospecificity (major glucuronide in bracket) ([11]; UGT1A1, substrate 10 μM): no preference; also recorded: did not show any regiospecific preference; also recorded: no regiospecificity; also recorded: No (3-O,7-O)

SMILES: O=C(O)[C@H]1O[C@@H](Oc2cc(O)c3c(=O)c(O)c(-c4ccc(O)c(O)c4)oc3c2)[C@H](O)[C@@H](O)[C@@H]1O [quercetin,7-O-G]
Antioxidative property [13]: stronger antioxidative property than quercetin,3-O-G
